US20180327367A1, “MACROCYCLIC BROAD SPECTRUM ANTIBIOTICS” (priority 2015, published 2018)
Converted amounts (≈) assume the structure as drawn. Like-named read-outs stand apart in the source and are kept apart here.

How the values were obtained:
[1] = system: Methicillin Resistant Staphylococcus aureus strain USA 300, NRS384; assay: Minimum inhibitory concentration, broth micro-dilution (CLSI), S. aureus; type: cell-based; settings: Staphylococcus aureus, MRSA / NRS 384 / USA300, 22 h, 35° C., 22 hours
In short: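 Colonies grown 20 hours at 35° C were suspended in cation-adjusted Mueller Hinton Broth with 0.002% Tween-80. Cells were then added to 2-fold compound dilutions starting at 4 or 0.5 μg/mL, at OD600 0.0005.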

[2] = system: Escherichia coli ATCC 25922; assay: Minimum inhibitory concentration, broth micro-dilution (CLSI), E. coli; type: cell-based; settings: Escherichia coli, ATCC25922, 22 h, 35° C., 22 hours
[3] = biological target: T1, SpsB (Staphylococcus aureus signal peptidase) (Staphylococcus aureus, UniProt P0A070); assay: cell-based; type: biochemical; settings: SpsB IC50, whole-cell S. aureus (USA300 background, overexpressing SpsB) as SpsB source; fluorogenic peptide substrate, kinetic read 30 min
T1 construct: This assay uses a suspension of Staphylococcus aureus cells as a source of SpsB instead of recombinant SpsB protein; endogenous in cells; host or cells: S. aureus, USA300 background, overexpressing SpsB (whole-cell suspension from frozen pellets)
T1 sequence (P0A070 whole entry): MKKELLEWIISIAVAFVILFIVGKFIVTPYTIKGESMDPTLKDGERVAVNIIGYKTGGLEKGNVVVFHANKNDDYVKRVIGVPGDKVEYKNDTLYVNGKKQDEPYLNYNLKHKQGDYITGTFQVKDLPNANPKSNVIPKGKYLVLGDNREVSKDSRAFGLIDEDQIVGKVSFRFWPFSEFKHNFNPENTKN
In short: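 Cleavage of an internally quenched (Dabcyl)βAla-KPAKAAE(Edans) peptide, added as 20 μM solution mixed 1:1 with cells, was followed for 30 min at 340/490 nm. SpsB came from a suspension of SpsB-overexpressing USA300 S. aureus in Tween-80-containing PBS buffer. Slopes plotted against 3-fold compound dilutions gave IC50.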

[4] = system: Escherichia coli MC4100 harboring the IMP4213 (E. coli IMP); assay: microbe, parasite or virus in culture; type: cell-based; settings: Escherichia coli, 22 h, read-out: MIC (μg/mL) E. coli IMP, E. coli MC4100 IMP4213, increased outer-membrane permeability; 35° C., 22 hours
In short: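 Ten 2-fold dilutions, from 4 μg/mL or from 0.5 μg/mL depending on protocol, are challenged with bacteria at OD600 0.0005 in Tween-80-supplemented cation-adjusted Mueller Hinton Broth. Plates incubate 22 hours at 35° C per CLSI. The E. coli IMP4213 strain has increased outer-membrane permeability.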

[5] = MRSA USA 300 NRS384, read-out: MIC (μg/mL) S. aureus
[6] = E. coli ATCC 25922, read-out: MIC (μg/mL) E. coli
[7] = read-out: MIC (μg/mL) S. aureus, MRSA USA 300 NRS384
[8] = read-out: MIC (μg/mL) E. coli, E. coli ATCC 25922

SMILES	MIC [1, 5] [µg/mL]	MIC [2, 6] [µg/mL]	IC50 [3] [nM]	MIC [4] [µg/mL]	MIC [1, 7] [µg/mL]	MIC [2, 8] [µg/mL]
CCCC#Cc1ccc(C(=O)N[C@@H](CCN)C(=O)N(C)[C@@H]2C(=O)N[C@@H](C)C(=O)N[C@H](C(=O)NCC#N)Cc3ccc(OCCN)c(c3)-c3cc2ccc3OCCN)c(C)c1 [Compound 307]	0.25 (≈ 0.304 µM)	0.88 (≈ 1.07 µM)	3.5	0.031 (≈ 0.0377 µM)	–	–
CCC/C=C\c1ccc(C(=O)N[C@@H](CCN)C(=O)N(C)[C@@H]2C(=O)N[C@@H](C)C(=O)N[C@H](C(=O)NCC#N)Cc3ccc(OCCN)c(c3)-c3cc2ccc3OCCN)c(C)c1 [Compound 308]	0.063 (≈ 0.0765 µM)	1 (≈ 1.21 µM)	0.71	0.016 (≈ 0.0194 µM)	–	–
Cc1cc(C#CC(C)C)ccc1C(=O)N[C@@H](CCN)C(=O)N(C)[C@@H]1C(=O)N[C@@H](C)C(=O)N[C@H](C(=O)NCC#N)Cc2ccc(OCCN)c(c2)-c2cc1ccc2OCCN [Compound 309]	0.19 (≈ 0.231 µM)	1.1 (≈ 1.34 µM)	1	0.02 (≈ 0.0243 µM)	–	–
Cc1cc(C#CC2CCCCC2)ccc1C(=O)N[C@@H](CCN)C(=O)N(C)[C@@H]1C(=O)N[C@@H](C)C(=O)N[C@H](C(=O)NCC#N)Cc2ccc(OCCN)c(c2)-c2cc1ccc2OCCN [Compound 310]	0.047 (≈ 0.0545 µM)	0.13 (≈ 0.151 µM)	0.99	0.0098 (≈ 0.0114 µM)	–	–
C[C@@H]1NC(=O)[C@@H](N(C)C(=O)[C@H](CCN)NC(=O)c2ccc(C#CC3CCCCC3)cc2C(F)F)c2ccc(OCCN)c(c2)-c2cc(ccc2OCCN)C[C@@H](C(=O)NCC#N)NC1=O [Compound 311]	–	–	0.64	0.012 (≈ 0.0134 µM)	0.047 (≈ 0.0523 µM)	0.25 (≈ 0.278 µM)
CCCCCCCc1cc(C)c(C(=O)N[C@@H](CCN)C(=O)N(C)[C@@H]2C(=O)N[C@@H](C)C(=O)N[C@H](C(=O)NCC#N)Cc3ccc(OCCN)c(c3)-c3cc2ccc3OCCN)cn1 [Compound 313]	0.031 (≈ 0.0363 µM)	0.5 (≈ 0.585 µM)	0.68	0.0078 (≈ 0.00912 µM)	–	–
CCCCCCCCCCNCCC(=O)N(C)[C@@H]1C(=O)N[C@@H](C)C(=O)N[C@H](C(=O)NCC#N)Cc2ccc(O)c(c2)-c2cc1ccc2OCCN [Compound 316]	0.13 (≈ 0.184 µM)	> 64	0.84	2 (≈ 2.83 µM)	–	–
CCCCCCCCCCNCCC(=O)N(C)[C@@H]1C(=O)N[C@@H](C)C(=O)N[C@H](C(=O)NCC#N)Cc2ccc(OCCN)c(c2)-c2cc1ccc2O [Compound 317]	0.094 (≈ 0.133 µM)	64 (≈ 90.7 µM)	0.87	1 (≈ 1.42 µM)	–	–
C[C@@H]1NC(=O)[C@@H](N(C)C(=O)[C@H](CCCCN)NC(=O)c2ccc(-c3ccc(Cl)cc3)cc2)c2ccc(OCCN)c(c2)-c2cc(ccc2O)C[C@@H](C(=O)N[C@@H](C)C#N)NC1=O [Compound 319]	–	–	6.3	0.75 (≈ 0.881 µM)	2 (≈ 2.35 µM)	> 64
CCCCCCCCCCNCCC(=O)N[C@@H](CCCCN)C(=O)N(C)[C@@H]1C(=O)N[C@@H](C)C(=O)N[C@H](C(=O)NCC#N)Cc2ccc(O)c(c2)-c2cc1ccc2OCCN [Compound 320]	0.13 (≈ 0.156 µM)	> 64	0.97	2 (≈ 2.4 µM)	–	–
CCCCc1ccc(-c2ccc(C(=O)N[C@@H](CN)C(=O)N(C)[C@@H]3C(=O)N[C@@H](C)C(=O)N[C@H](C(=O)NCC#N)Cc4ccc(OCCO)c(c4)-c4cc3ccc4OCCN)cc2)cc1 [Compound 321]	–	–	1.8	0.016 (≈ 0.0186 µM)	0.38 (≈ 0.441 µM)	1 (≈ 1.16 µM)
CCCCc1ccc(-c2ccc(C(=O)N[C@@H](CN)C(=O)N(C)[C@@H]3C(=O)N[C@@H](C)C(=O)N[C@H](C(=O)NCC#N)Cc4ccc(OCCC)c(c4)-c4cc3ccc4OCCN)cc2)cc1 [Compound 322]	1.5 (≈ 1.75 µM)	4 (≈ 4.66 µM)	8.4	0.13 (≈ 0.151 µM)	–	–
